Source: US20200246268A1, “CPZEN COMPOSITIONS AND USES” (PAI Life Sciences Inc., priority 2017, published 2020)
Where “and” joins values, the source holds several entries; their conditions need not be identical. Identical values can stand only once.

What was measured:
[1] = tested on: porcine stomach mucin; experiment: Mucin binding dialysis assay
Procedure: Mucin binding was evaluated using a dialysis assay developed previously (Huang et al., 2015). Briefly, 100 μL of capreomycin, CPZEN-45, or a 50:50 combination of both at 4 mg/mL per drug was suspended in 900 μL Dulbecco's PBS without calcium or magnesium (Lonza, Cat. #17-512F) either with or without 12.5% (wt./vol) porcine stomach mucin (Sigma-Aldrich, Cat. #M1778, type III, bound sialic acid 0.5% to 1.5%, partially purified powder). The resulting mixtures were placed in Spectra/Por dialysis bags (6- to 8-kDa molecular mass cutoff, 32-mm flat width, 20.4-mm diameter; 3.3-ml/cm volume; Spectrum Laboratories, Cat. #132655, Rancho Dominguez, Calif.), with the tube ends closed using standard dialysis bag closures. […] Dialysate samples (200 μl) were collected at 10, 60, 120, and 240 minutes and the antibiotic concentration within each dialysate was determined by HPLC UV/vis analysis. The percentage of each antibiotic detected in the dialysate was calculated relative to the theoretical total concentration based on 400 μg of antibiotic in an 11-ml total volume. […]
Colistin sulfate content was measured via mass spectrometry on an Agilent 6460 Triple Quadrupole LC/MS System with a Waters Cortecs UPLC C18 1.6 2.1×50 mm column.

[2] = in vivo; cited from earlier work
[3] = Accelerated stability study: assay and related substances by HPLC; type: physicochemical; details: for CPZEN-45 assay by HPLC / Related Substances by HPLC: CPZEN-45 API
Procedure: Drugs were stored either individually as a free-flowing powder, as a 1:1 spray-dried formulation of capreomycin and CPZEN-45 as a free-flowing powder, or as a 1:1 spray-dried formulation in #3 hydroxypropylmethylcellulose (HPMC) capsules. All samples were deposited into 5 mL screw-top glass vials. Samples were collected at the beginning of the study, after 1 week, 1 month, 3 months, and 6 months. HPLC-based methods for detecting CPZEN-45, capreomycin, and degradation products are described in the “Methods” section below.
(§1) Capreomycin and CPZEN-45 content for forced degradation, stability, and impactor studies was measured by RP-HPLC with a Shimadzu system consisting of an SCL-10AVP system controller, two LC-10ADVP pumps, a DGU-14A degasser, SIL-10A autoinjector, and SPD-M10AVP diode array detector. […] All peaks were detected at wavelength 265 nm. Linearity for total capreomycin was obtained between 1 and 75 μg/mL (R^2=0.996) with a limit of detection (LOD) of 0.74 μg/mL. Linearity for CPZEN-45 was obtained between 0.5 and 100 μg/mL (R^2=0.996) with an LOD of 1.03 μg/mL.

[4] = type: physicochemical; details: base treatment (0.1 M NaOH, pH=12.8, 72 hours)
Procedure: Prior to evaluating the long-term stability of a spray-dried combination powder, multiple forced degradations on capreomycin and CPZEN-45 were performed before determining the chromatographic profile of treated materials and monitoring absorbance at 265 nm using a Shimadzu RP-HPLC unit. By this method, it was confirmed that it was possible to detect drug degradation as well as any degradants generated.
Forced degradations were performed by subjecting aqueous solutions of non-spray-dried capreomycin or CPZEN-45 at 0.1 mg/mL to multiple conditions (all at 23° C. unless noted otherwise): control (no treatment, 72 hours), acid (0.1 M HCl, pH=1.2, 72 hours), base (0.1 M NaOH, pH=12.8, 72 hours), oxidizer (3% w/v 2Na2CO3 3H2O2 (sodium percarbonate), 72 hours), 60° C. for 72 hours, or 90° C. for 30 minutes.
as §1, with “1.03 μg/mL. […]” for “1.03 μg/mL.”

[5] = 40° C./75% RH table, T = 3 MON, footnote: due to melting values after month 3 are 30° C./60% RH
[6] = 40° C./75% RH table, T = 6 MON, footnote: due to melting values after month 3 are 30° C./60% RH

colistin sulfate
Percentage of efflux in the presence of mucin relative to samples without mucin ([1]; after 4 hours, drug alone, 12.5% porcine stomach mucin, 37° C.): 20%

CCCCc1ccc(NC(=O)C2=CCN(C)[C@@H]([C@H](O[C@@H]3O[C@H](CN)[C@@H](O)[C@H]3O)[C@H]3O[C@@H](n4ccc(=O)[nH]c4=O)[C@H](O)[C@@H]3O)C(=O)N2C)cc1 [CPZEN-45]
Oral availability [2]: not orally available due to poor absorption from the gastrointestinal tract
Stability in accelerated stability studies [3]: highly stable
CPZEN-45 assay by HPLC ([3]; 25° C./60% RH, T = 0, replicates 1-3 and average ± RSD): 98.1% and 98.0% and 95.3%
Related Substances by HPLC ([3]; 25° C./60% RH, T = 1 MON, replicates 1-3 and average): 0.7%
CPZEN-45 assay by HPLC ([3]; 25° C./60% RH, T = 1 MON, replicates 1-3 and average ± RSD): 100.7% and 98.0% and 99.5%
Related Substances by HPLC ([3]; 25° C./60% RH, T = 1 WEEK, replicates 1-3 and average): 0.4%
CPZEN-45 assay by HPLC ([3]; 25° C./60% RH, T = 1 WEEK, replicates 1-3 and average ± RSD): 96.2% and 95.8% and 97.1%
Related Substances by HPLC ([3]; 25° C./60% RH, T = 3 MON, replicates 1-3 and average): 0.4% and 0.6%
CPZEN-45 assay by HPLC ([3]; 25° C./60% RH, T = 3 MON, replicates 1-3 and average ± RSD): 98.0% and 103.2%
Related Substances by HPLC ([3]; 25° C./60% RH, T = 6 MON, replicates 1-3 and average): 0.8%
CPZEN-45 assay by HPLC ([3]; 25° C./60% RH, T = 6 MON, replicates 1-3 and average ± RSD): 97.2% and 98.4% and 97.1%
CPZEN-45 assay by HPLC [3, 5]: 97.2% and 101.0% and 102.8%
Related Substances by HPLC [3, 5]: 0.6% and 0.8%
CPZEN-45 assay by HPLC [3, 6]: 96.5% and 98.0% and 97.5%
Related Substances by HPLC [3, 6]: 1.4% and 1.2%
CPZEN-45 assay by HPLC ([3]; 40° C./75% RH, T = 0, replicates 1-3 and average ± RSD): 98.1% and 98.0% and 95.3%
Related Substances by HPLC ([3]; 40° C./75% RH, T = 1 MON, replicates 1-3 and average): 2.5% and 1.8% and 2.0%
CPZEN-45 assay by HPLC ([3]; 40° C./75% RH, T = 1 MON, replicates 1-3 and average ± RSD): 100.3% and 96.0% and 94.4%
Related Substances by HPLC ([3]; 40° C./75% RH, T = 1 WEEK, replicates 1-3 and average): 0.5%
CPZEN-45 assay by HPLC ([3]; 40° C./75% RH, T = 1 WEEK, replicates 1-3 and average ± RSD): 96.1% and 96.4% and 95.9%
Loss of the original mass of intact compound [4]: approximately 88%
Percentage of efflux in the presence of mucin relative to samples without mucin ([1]; not told): 48%
